Test results: ChEMBL document CHEMBL3045401, “(Naphthalen-1-yloxy)-acetic acid benzylidene/(1-phenyl-ethylidene)-hydrazide derivatives: synthesis, antimicrobial evaluation, and QSAR studies” (Med Chem Res, 2012)
≈ marks a conversion by molar mass, not a printed value.

What was measured:
[1] = Octanol-water partition coefficient, log P of the compound; type: physicochemical
[2] = Cytotoxicity against HEL assessed as minimum concentration required to cause morphological changes; type: cell-based; details: human, HEL cells
Human alphaherpesvirus 3 [3] = test: Antiviral activity against thymidine kinase-deficient Human herpesvirus 3 infected in HEL cells assessed as inhibition of viral plaque formation; type: functional, organism-based; details: Human alphaherpesvirus 3, HEL
[4] = test system: Human immunodeficiency virus 2; test: Antiviral activity against Human immunodeficiency virus type 2 (ISOLATE ROD) infected human MT4 cells assessed as inhibition of virus-induced cytopathic effect after 4 days by MTT assay; type: functional, organism-based; details: Human immunodeficiency virus 2, ISOLATE ROD, MT4, 96 h
Bacillus subtilis = test: Antimicrobial activity against Bacillus subtilis after 24 hr by serial dilution method; type: functional
Escherichia coli = test: Antimicrobial activity against Escherichia coli after 24 hr by serial dilution method; type: functional
Candida albicans = test: Antimicrobial activity against Candida albicans after 2 days by serial dilution method; type: functional
Staphylococcus aureus = test: Antimicrobial activity against Staphylococcus aureus after 24 hr by serial dilution method; type: functional
Human alphaherpesvirus 3 [5] = test: Antiviral activity against thymidine kinase-positive Human herpesvirus 3 infected in HEL cells assessed as inhibition of viral plaque formation; type: functional, organism-based; details: Human alphaherpesvirus 3, HEL
[6] = test system: Human immunodeficiency virus 1; test: Antiviral activity against Human immunodeficiency virus 1 IIIB infected human MT4 cells assessed as inhibition of virus-induced cytopathic effect after 4 days by MTT assay; type: functional, organism-based; details: MT4, 96 h
Aspergillus niger = test: Antimicrobial activity against Aspergillus niger after 7 days by serial dilution method; type: functional
[7] = Cytotoxicity against Homo sapiens (human) MT4 cells after 4 days by MTT assay; type: cell-based
Human betaherpesvirus 5 [8] = test: Antiviral activity against Human herpesvirus 5 strain AD169 infected human HEL cells assessed as reduction in the virus plaque formation; type: functional, organism-based; details: Human betaherpesvirus 5, AD169, HEL
Human betaherpesvirus 5 [9] = test: Antiviral activity against Human herpesvirus 5 Davis infected human HEL cells assessed as reduction in the virus plaque formation; type: functional, organism-based; details: Human betaherpesvirus 5, Davis
[10] = Cytotoxicity against HEL; type: cell-based; details: human, HEL cells

SMILES | logP [1] | EC50 (Human alphaherpesvirus 3 [3]) [µg/mL] | EC50 (Human alphaherpesvirus 3 [5]) [µg/mL] | EC50 (Human betaherpesvirus 5 [8]) [µg/mL] | EC50 (Human betaherpesvirus 5 [9]) [µg/mL] | MCC [2] [µg/mL] | EC50 [4] [µg/mL] | -logMIC (Bacillus subtilis) | -logMIC (Escherichia coli) | -logMIC (Candida albicans) | -logMIC (Staphylococcus aureus) | EC50 [6] [µg/mL] | -logMIC (Aspergillus niger) | CC50 at 96 h [7] [µg/mL] | CC50 [10] [µg/mL]
COc1ccc(/C=N/NC(=O)COc2cccc3ccccc23)cc1 | 3.77 | > 4 | > 4 | > 4 | > 4 | 20 | > 76.9 | 0.82 | 0.82 | 0.82 | 0.82 | > 76.9 | 0.82 | 76.9 (≈ 230 µM) | 100 (≈ 299 µM)
COc1ccc(/C=N/NC(=O)COc2cccc3ccccc23)cc1O | 3.48 | 20 (≈ 57.1 µM) | 13.8 (≈ 39.4 µM) | > 20 | > 20 | 100 | > 7.05 | 1.45 | 1.45 | 1.15 | 1.15 | > 7.05 | 1.15 | 7.05 (≈ 20.1 µM) | 27.7 (≈ 79.1 µM)
COc1cc(/C=N/NC(=O)COc2cccc3ccccc23)cc(OC)c1O | 3.23 | > 20 | 16.9 (≈ 44.4 µM) | > 20 | > 20 | 100 | > 16.3 | 1.48 | 1.48 | 1.78 | 1.18 | > 16.3 | 1.48 | 16.3 (≈ 42.8 µM) | 52.8 (≈ 139 µM)
O=C(COc1cccc2ccccc12)N/N=C/c1c(O)ccc2ccccc12 | 4.74 | > 0.8 | > 0.8 | > 0.8 | > 0.8 | 4 | > 2.12 | 0.57 | 0.87 | 0.87 | 0.87 | > 2.12 | 0.87 | 2.12 (≈ 5.72 µM) | 1.94 (≈ 5.24 µM)
CCOc1ccc(/C=N/NC(=O)COc2cccc3ccccc23)cc1O | 3.82 | > 4 | > 4 | > 20 | > 20 | 100 | > 6.23 | 1.46 | 1.46 | 1.46 | 1.16 | > 6.23 | 1.46 | 6.23 (≈ 17.1 µM) | 18.1 (≈ 49.7 µM)
O=C(COc1cccc2ccccc12)N/N=C/c1ccccc1[N+](=O)[O-] | 3.97 | > 4 | > 4 | > 4 | > 4 | 20 | > 12.2 | 1.14 | 1.45 | 1.45 | 1.45 | > 12.2 | 1.45 | 12.2 (≈ 34.9 µM) | 100 (≈ 286 µM)

Second part, led by results:

logP [1] | EC50 (Human alphaherpesvirus 3 [3]) [µg/mL] | EC50 (Human alphaherpesvirus 3 [5]) [µg/mL] | EC50 (Human betaherpesvirus 5 [8]) [µg/mL] | EC50 (Human betaherpesvirus 5 [9]) [µg/mL] | SMILES | MCC [2] [µg/mL] | EC50 [4] [µg/mL] | -logMIC (Bacillus subtilis) | -logMIC (Escherichia coli) | -logMIC (Candida albicans) | -logMIC (Staphylococcus aureus) | EC50 [6] [µg/mL] | -logMIC (Aspergillus niger) | CC50 at 96 h [7] [µg/mL] | CC50 [10] [µg/mL]
3.08 | 7.9 (≈ 23.6 µM) | 7 (≈ 20.9 µM) | > 4 | > 4 | C/C(=N\NC(=O)COc1cccc2ccccc12)c1ccccc1O | 20 | > 11.2 | 0.82 | 1.43 | 0.82 | 1.13 | > 11.2 | 0.82 | 11.2 (≈ 33.6 µM) | 4 (≈ 12 µM)
3.65 | > 20 | > 20 | > 4 | > 4 | C/C(=N\NC(=O)COc1cccc2ccccc12)c1ccccc1 | 20 | > 105 | 0.82 | 0.82 | 0.82 | 0.82 | > 105 | 0.82 | 105 (≈ 328 µM) | 20 (≈ 62.8 µM)
4.31 | > 100 | 58.5 (≈ 167 µM) | > 100 | > 100 | C/C(=N\NC(=O)COc1cccc2ccccc12)c1ccc(O)cc1O | > 100 | > 59.9 | 1.15 | 1.75 | 1.45 | 1.15 | > 59.9 | 1.45 | 59.9 (≈ 171 µM) | 74.8 (≈ 213 µM)
4.44 | > 4 | > 4 | > 4 | > 4 | C/C(=N\NC(=O)COc1cccc2ccccc12)c1ccccc1Br | 20 | > 79.8 | 1.2 | 1.2 | 1.5 | 1.2 | > 79.8 | 1.5 | 79.8 (≈ 201 µM) | 16.2 (≈ 40.8 µM)
3.61 | > 4 | > 4 | > 4 | > 4 | C/C(=N\NC(=O)COc1cccc2ccccc12)c1ccc(Br)cc1 | 20 | > 77.6 | 0.9 | 0.6 | 0.6 | 0.6 | > 77.6 | 0.6 | 77.6 (≈ 195 µM) | 15.3 (≈ 38.5 µM)
4.02 | > 20 | > 20 | > 20 | > 20 | O=C(COc1cccc2ccccc12)N/N=C/c1ccccc1 | 100 | > 96.6 | 0.78 | 0.78 | 0.78 | 0.78 | > 96.6 | 0.78 | ≥ 96.6 | 64.5 (≈ 212 µM)
4.17 | 3.24 (≈ 9.18 µM) | 2.5 (≈ 7.09 µM) | > 0.8 | 4 (≈ 11.3 µM) | C/C(=N\NC(=O)COc1cccc2ccccc12)c1ccc(Cl)cc1 | ≥ 4 | > 4.07 | 1.15 | 1.15 | 1.75 | 1.45 | > 4.07 | 0.85 | 4.07 (≈ 11.5 µM) | 7.1 (≈ 20.1 µM)
4.43 | > 20 | > 20 | > 20 | > 20 | O=C(COc1cccc2ccccc12)N/N=C/C=C/c1ccccc1 | 100 | > 62.7 | 1.12 | 1.12 | 1.72 | 1.12 | > 62.7 | 0.82 | 82.7 (≈ 250 µM) | 100 (≈ 303 µM)
